The IC50 is the concentration needed to halve the response being measured. Low readings indicate greater potency, high ones weaker potency.

Where only a bound is given, the exact number is not on record here.

The target of this assay is hENPP2 (UniProtKB/SwissProt Sequence ref Q13822) (Homo sapiens (Human), UniProt Q13822). Kind of assay: LPC hENPP2 assay (choline release, LPC as substrate). The format is biochemical. The method, then:
The principle of the assay consists in quantifying the released choline with an enzymatic method using choline oxidase and peroxidase. Choline oxydation by choline oxydase releases betaine and peroxide. The latter is quantified in presence of HRP that converts the peroxide detection agent TOOS and 4-aminoantipyrine into quinoneimine dye. The appearance of quinoneimine dye is measured spectrophotometrically at 555 nm and is proportional to the amount of choline released by ENPP2. Inhibition of ENPP2 will result in a decrease of the signal.
The reaction is terminated and choline quantified by the addition of a 25 μL of a mixture containing 0.6 U/mL of choline oxidase, 0.6 U/mL of peroxydase, 1.8 mM TOOS, 1.2 mM amino-antipyrine, 20 mM EGTA (stop-developer solution) diluted in the buffer described above. […] is read on the Envision after an incubation of 30 min at room temperature (Excitation 555 nm, excitation light=70%).
The molecule `CCc1nc2ccc(N3CCCC4(CN(C)C(=O)O4)C3)nn2c1N(C)c1nc(-c2ccc(F)cc2)c(C#N)s1` (stereo not drawn) [Cpd 163, 2-((2-ethyl-6-(3-methyl-2-oxo-1-oxa-3,7-diazaspiro[4.5]decan-7-yl)imidazo [1,2-b]pyridazin-3-yl)(methyl)amino)-4-(4-fluorophenyl) thiazole-5-carbonitrile] showed an IC50 of more than 1000 nM.
Molecule `CCc1nc2ccc(N3CCC4(CCOCC4)C3)nn2c1N(C)c1nc(-c2ccc(F)cc2)cs1` [Cpd 117, N-(2-ethyl-6-(8-oxa-2-azaspiro[4.5]decan-2-yl)imidazo[1,2-b]pyridazin-3-yl)-4-(4-fluorophenyl)-N-methylthiazol-2-amine] gave an IC50 of more than 1000 nM.
Turning to `CCc1nc2ccc(N3CCC(NCC(=O)OC)C3)nn2c1N(C)c1nc(-c2ccc(F)cc2)cs1` (stereo not drawn) [Cpd 135, methyl 2-(1-(2-ethyl-3-((4-(4-fluorophenyl)thiazol-2-yl)(methyl)amino)imidazo[1,2-b]pyridazin-6-yl)pyrrolidin-3-ylamino)acetate], the IC50 lay within 500 to 1000 nM.
`CCc1nc2ccc(N3CCC(NC(=O)C4CCN(C(=O)OC(C)(C)C)CC4)CC3)nn2c1N(C)c1nc(-c2ccc(F)cc2)cs1` [Cpd 87, tert-butyl 4-(1-(2-ethyl-3-((4-(4-fluorophenyl)thiazol-2-yl)(methyl)amino)imidazo[1,2-b]pyridazin-6-yl)piperidin-4-ylcarbamoyl) piperidine-1-carboxylate] came in with an IC50 of more than 1000 nM.
With `CCc1nc2cnc(N3CCN(CC(=O)N4CC(O)C4)CC3)cn2c1N(C)c1nccc(-c2ccc(F)cc2C#N)n1` [Cpd 18, 2-(2-((2-ethyl-6-(4-(2-(3-hydroxyazetidin-1-yl)-2-oxoethyl)piperazin-1-yl)imidazo[1,2-a]pyrazin-3-yl)(methyl)amino)pyrimidin-4-yl)-5-fluorobenzonitrile] the figure was more than 1000 nM.
`CCc1nc2ccc(N3CCC(N4CCC(OC)CC4)C3)nn2c1N(C)c1nc(-c2ccc(F)cc2)c(C#N)s1` (stereo not drawn) [Cpd 183, 2-((2-ethyl-6-(3-(4-methoxypiperidin-1-yl)pyrrolidin-1-yl)imidazo[1,2-b]pyridazin-3-yl)(methyl)amino)-4-(4-fluorophenyl) thiazole-5-carbonitrilc] came in with a concentration for half-maximal inhibition (IC50) of 0.01 to 100 nM.
With `CCc1nc2ccc(N3CCN(CC(=O)N4CCCC4C)CC3)nn2c1N(C)c1nc(-c2ccc(F)cc2)cs1` (stereo not drawn) [Cpd 28, 2-(4-(2-ethyl-3-((4-(4-fluorophenyl)thiazol-2-yl)(methyl)amino)imidazo[1,2-b]pyridazin-6-yl)piperazin-1-yl)-1-(2-methylpyrrolidin-1-yl)ethanone] the figure was 100 to 500 nM; with `CCc1nc2ccc(N3CCC(CN)CC3)nn2c1N(C)c1nc(-c2ccc(F)cc2)cs1` [Cpd 104, N-(6-(4-(aminomethyl)piperidin-1-yl)-2-ethylimidazo[1,2-b]pyridazin-3-yl)-4-(4-fluorophenyl)-N-methylthiazol-2-amine], more than 1000 nM; with `CCc1nc2ccc(N3CCC4(CCOCC4)C3)nn2c1N(C)c1nc(-c2ccc(F)cc2)c(CO)s1` [Cpd 186, (2-((2-ethyl-6-(8-oxa-2-azaspiro[4.5]decan-2-yl)[1,2-b]pyridazin-3-yl)(methyl)amino)-4-(4-fluorophenyl)thiazol-5-yl)methanol], 100 to 500 nM.
`CCc1nc2ccc(N3CCC(C(=O)N4CCOCC4)C3)nn2c1N(C)c1nc(-c2ccc(F)cc2)cs1` (stereo not drawn) [Cpd 141, (1-(2-ethyl-3-((4-(4-fluorophenyl)thiazol-2-yl)(methyl)amino)imidazo[1,2-b]pyridazin-6-yl)pyrrolidin-3-yl)(morpholino) methanone] had an IC50 of more than 1000 nM.
With `CCc1nc2ccc(N3CC(NS(C)(=O)=O)C3)nn2c1N(C)c1nc(-c2ccc(F)cc2)c(C#N)s1` [Cpd 190, N-(1-(3-((5-cyano-4-(4-fluorophenyl)thiazol-2-yl)(methyl)amino)-2-ethylimidazo[1,2-b]pyridazin-6-yl)azetidin-3-yl)methane-sulfonamide] the figure was 0.01 to 100 nM; with `CCc1nc2ccc(N3CCN(CCNC(=O)OC(C)(C)C)CC3)nn2c1N(C)c1nc(-c2ccc(F)cc2)cs1` [Cpd 56, tert-butyl 2-(4-(2-ethyl-3-((4-(4-fluorophenyl)thiazol-2-yl)(methyl)amino)imidazo[1,2-b]pyridazin-6-yl)piperazin-1-yl)ethylcarbamate], more than 1000 nM.
In the case of `CCc1nc2ccc(N3CCN(S(C)(=O)=O)[C@H](CO)C3)nn2c1N(C)c1nc(-c2ccc(F)cc2)c(C#N)s1` [Cpd 161, (S)-2-((2-ethyl-6-(3-(hydroxymethyl)-4-(methylsulfonyl)piperazin-1-yl)imidazo[1,2-b]pyridazin-3-yl)(methyl)amino)-4-(4-fluorophenyl) thiazole-5-carbonitrile], the IC50 was 100 to 500 nM.
With `CCc1nc2ccc(N3CCC4(CC(=O)NC4=O)C3)nn2c1N(C)c1nc(-c2ccc(F)cc2)cs1` (stereo not drawn) [Cpd 121, 7-(2-ethyl-3-((4-(4-fluorophenyl)thiazol-2-yl)(methyl)amino)imidazo[1,2-b]pyridazin-6-yl)-2,7-diazaspiro[4.4] nonane-1,3-dione] the figure was more than 1000 nM.
Molecule `CCc1nc2ccc(N3CCN4C(=O)COC[C@@H]4C3)nn2c1N(C)c1nc(-c2ccc(F)cc2)cs1` [Compound 66, (S)-8-(2-ethyl-3-((4-(4-fluorophenyl)thiazol-2-yl)(methyl)amino)imidazo[1,2-b]pyridazin-6-yl)hexahydropyrazino[2,1-c][1,4]oxazin-4(1H)-one] came in with an IC50 of more than 1000 nM.
As to `CCc1nc2ccc(N3CCN(C4CCOCC4)CC3)nn2c1N(C)c1nc(-c2ccc(F)cc2)cs1` [Cpd 39, N-(2-ethyl-6-(4-(tetrahydro-2H-pyran-4-yl)piperazin-1-yl)imidazo[1,2-b]pyridazin-3-yl)-4-(4-fluorophenyl)-N-methylthiazol-2-amine], the concentration for half-maximal inhibition (IC50) was more than 1000 nM.
With `CCc1nc2ccc(N3CC(C(=O)N4CCC(O)C4)C3)nn2c1N(C)c1nc(-c2ccc(F)cc2)c(C#N)s1` (stereo not drawn) [Cpd 192, 2-((2-ethyl-6-(3-(3-hydroxy-pyrrolidine-1-carbonyl)azetidin-1-yl)imidazo[1,2-b]pyridazin-3-yl)(methyl)amino)-4-(4-fluorophenyl) thiazole-5-carbonitrile] the figure was 100 to 500 nM; with `CCc1nc2ccc(N3CCC(c4ccccc4)CC3)nn2c1N(C)c1nc(-c2ccc(F)cc2)cs1` [Cpd 113, N-(2-ethyl-6-(4-phenylpiperidin-1-yl)imidazo[1,2-b]pyridazin-3-yl)-4-(4-fluorophenyl)-N-methylthiazol-2-amine], more than 1000 nM.
Take `CCc1nc2ccc(N3CCCC4(CNC(=O)O4)C3)nn2c1N(C)c1nc(-c2ccc(F)cc2)c(C#N)s1` (stereo not drawn) [Cpd 162, 2-((2-ethyl-6-(2-oxo-1-oxa-3,7-diazaspiro[4.5]decan-7-yl)imidazo [1,2-b]pyridazin-3-yl)(methyl)amino)-4-(4-fluorophenyl) thiazole-5-carbonitrile]: the IC50 was 100 to 500 nM.
With `CCc1nc2ccc(N3CCC(NC(=O)CO)CC3)nn2c1N(C)c1nc(-c2ccc(F)cc2)cs1` [Cpd 85, N-(1-(2-ethyl-3-((4-(4-fluorophenyl)thiazol-2-yl)(methyl)amino)imidazo[1,2-b]pyridazin-6-yl)piperidin-4-yl)-2-hydroxyacetamide] the figure was more than 1000 nM; with `CCc1nc2ccc(N3CCC(N4C[C@@H](C)O[C@@H](C)C4)C3)nn2c1N(C)c1nc(-c2ccc(F)cc2)c(C#N)s1` (stereo partly drawn) [Compound 178, 2-((6-(3-((2S,6R)-2,6-dimethylmorpholino)pyrrolidin-1-yl)-2-ethylimidazo[1,2-b]pyridazin-3-yl)(methyl)amino)-4-(4-fluorophenyl)thiazole-5-carbonitrile], 500 to 1000 nM.
`CCc1nc2ccc(N3CCN(CC(=O)N4CCC4)CC3)nn2c1N(C)c1nc(-c2ccc(F)cc2)cs1` [Cpd 36, 1-(azetidin-1-yl)-2-(4-(2-ethyl-3-((4-(4-fluorophenyl)thiazol-2-yl)(methyl)amino)imidazo[1,2-b]pyridazin-6-yl)piperazin-1-yl)ethanone] yielded an IC50 of 100 to 500 nM.
Molecule `CCc1nc2ccc(N3CCN(S(C)(=O)=O)[C@H](CO)C3)nn2c1N(C)c1nc(-c2ccc(F)cc2)c(CO)s1` [Cpd 68, (S)-(4-(2-ethyl-3-((4-(4-fluorophenyl)-5-(hydroxymethyl)thiazol-2-yl)(methyl)amino)imidazo[1,2-b]pyridazin-6-yl)-1-(methylsulfonyl)piperazin-2-yl)methanol] came in with an IC50 of 100 to 500 nM.
With `CCc1nc2ccc(C3CCNCC3)nn2c1N(C)c1nc(-c2ccc(F)cc2C#N)ns1` [Compound 219, 2-(5-((2-ethyl-6-(piperidin-4-yl)imidazo[1,2-b]pyridazin-3-yl)(methyl)amino)-1,2,4-thiadiazol-3-yl)-5-fluorobenzonitrile] the figure was more than 1000 nM; with `CCc1nc2ccc(N3CCN(CC(=O)NC)CC3)nn2c1N(C)c1nc(-c2ccc(F)cc2)cs1` [Cpd 30], 500 to 1000 nM; with `CCc1nc2ccc(N3CC[C@H](NCC(=O)N4CC(O)C4)C3)nn2c1N(C)c1nc(-c2ccc(F)cc2)c(C#N)s1` [Cpd 174, (S)-2-((2-ethyl-6-(3-(2-(3-hydroxyazetidin-1-yl)-2-oxoethylamino)pyrrolidin-1-yl)imidazo[1,2-b]pyridazin-3-yl)(methyl)amino)-4-(4-fluorophenyl) thiazole-5-carbonitrile], 0.01 to 100 nM.
In turn, `CCc1nc2cnc(C3=CCN(S(C)(=O)=O)CC3)cn2c1N(C)c1nc(-c2ccc(F)cc2)c(C#N)s1` [Cpd 20, 2-((2-ethyl-6-(1-(methylsulfonyl)-1,2,3,6-tetrahydropyridin-4-yl)imidazo[1,2-a]pyrazin-3-yl)(methyl)amino)-4-(4-fluorophenyl) thiazole-5-carbonitrile] gave an IC50 of more than 1000 nM.

Source of the values: patent US9796719B2, “Compounds and pharmaceutical compositions thereof for the treatment of inflammatory disorders” (GALAPAGOS NV, priority 2013, dated 2017).
